Results as given in patent publication US10639372B2, “Nucleic acid, medical nanoparticle, and pharmaceutical composition thereof” (Chung Yuan Christian University, priority 2016, dated 2020).

Experiments:
SCC4 cells = assay: Cytotoxicity test (MTT test) on SCC4 cells; assay type: cell-based, human; conditions: SCC4 cells treated 48 hours, MTT survival rate
Description: (§1) The human oral cancer cells used in the Examples SCC4 and SAS are cultivated in a Dulbecco's Modified Eagle's medium (DMEM) cell culture having 10% fetal bovine serum (FBS). The cells are cultivated in an environment having 5% carbon dioxide in 37 degree Celsius. When enough cells are cultivated, the subsequent analysis and tests are performed.
(§2) The MTT reagent (namely, 3-(4,5-dimethylthiazol)-2,5-diphenyltetrazoliumbromide) is a yellow dye. After the MTT reagents are reacted with succinatedehydrogenase-ubiquinone (SDH) in the mitochondrion and cytochrome C, water insoluble blue-purple crystals are formed. After the crystals are dissolved in DMSO solution, the cell survival condition may be determined by the absorbance of the solution at 570 nm, so that the survival ratio of the cells can be calculated.
(§3) DMEM cell culture without serum are provided for preparing MTT solution having a concentration of 5 milligrams per milliliter. […]
(§4) The SCC4 or SAS cells are planted in a 48-well plate (each having 1×10^4 cells). […] And then, the absorbance of the supernatant at 570 nm can be obtained by an enzyme-linked immunosorbent assay (ELISA) reader (model: VersaMax™ Microplate Reader, Molecular devices, Sunnyvale, USA).

SAS cells = assay: Cytotoxicity test (MTT test) on SAS cells; assay type: cell-based, human; conditions: SAS cells treated 48 hours, MTT survival rate
Description: as §1, §2, §3, §4

Substance: photosan
- IC50 for SCC4 cells (SCC4 cells): 2.4 microgram per milliliter
- IC50 for SAS cells (SAS cells): 1.75 microgram per milliliter

Substance: pyropheophorbide-phosphatidic acid [pyro-PA]
- IC50 for SCC4 cells (SCC4 cells): 0.8 microgram per milliliter
- IC50 for SAS cells (SAS cells): 0.1 microgram per milliliter
